Patent US11427558B1, “Indazoles and azaindazoles as LRRK2 inhibitors” (ESCAPE Bio, Inc., priority 2019, dated 2022)

Experiments:
[1] = molecular target: Recombinant wild type LRRK2 protein (Homo sapiens (Human), UniProt Q5S007); experiment: LRRK2 kinase activity, LanthaScreen TR-FRET assay (wild type); format: biochemical; conditions: LRRKtide 400 nM, 25 μM ATP, 60 min; read-out: LRRK2 WT IC50
Method in brief: (§1)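 Recombinant human wild-type or G2019S LRRK2 phosphorylated fluorescein-labelled LRRKtide (ERM-based) with ATP and serially diluted compound for 60 min at room temperature.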

[2] = molecular target: Recombinant G2019S-LRRK2 protein (Homo sapiens (Human), UniProt Q5S007, G2019S); experiment: LRRK2 kinase activity, LanthaScreen TR-FRET assay (G2019S); format: biochemical; conditions: LRRKtide 400 nM, 25 μM ATP, 60 min
Method in brief: as §1

Chain of Recombinant wild type LRRK2 protein (Q5S007 whole entry): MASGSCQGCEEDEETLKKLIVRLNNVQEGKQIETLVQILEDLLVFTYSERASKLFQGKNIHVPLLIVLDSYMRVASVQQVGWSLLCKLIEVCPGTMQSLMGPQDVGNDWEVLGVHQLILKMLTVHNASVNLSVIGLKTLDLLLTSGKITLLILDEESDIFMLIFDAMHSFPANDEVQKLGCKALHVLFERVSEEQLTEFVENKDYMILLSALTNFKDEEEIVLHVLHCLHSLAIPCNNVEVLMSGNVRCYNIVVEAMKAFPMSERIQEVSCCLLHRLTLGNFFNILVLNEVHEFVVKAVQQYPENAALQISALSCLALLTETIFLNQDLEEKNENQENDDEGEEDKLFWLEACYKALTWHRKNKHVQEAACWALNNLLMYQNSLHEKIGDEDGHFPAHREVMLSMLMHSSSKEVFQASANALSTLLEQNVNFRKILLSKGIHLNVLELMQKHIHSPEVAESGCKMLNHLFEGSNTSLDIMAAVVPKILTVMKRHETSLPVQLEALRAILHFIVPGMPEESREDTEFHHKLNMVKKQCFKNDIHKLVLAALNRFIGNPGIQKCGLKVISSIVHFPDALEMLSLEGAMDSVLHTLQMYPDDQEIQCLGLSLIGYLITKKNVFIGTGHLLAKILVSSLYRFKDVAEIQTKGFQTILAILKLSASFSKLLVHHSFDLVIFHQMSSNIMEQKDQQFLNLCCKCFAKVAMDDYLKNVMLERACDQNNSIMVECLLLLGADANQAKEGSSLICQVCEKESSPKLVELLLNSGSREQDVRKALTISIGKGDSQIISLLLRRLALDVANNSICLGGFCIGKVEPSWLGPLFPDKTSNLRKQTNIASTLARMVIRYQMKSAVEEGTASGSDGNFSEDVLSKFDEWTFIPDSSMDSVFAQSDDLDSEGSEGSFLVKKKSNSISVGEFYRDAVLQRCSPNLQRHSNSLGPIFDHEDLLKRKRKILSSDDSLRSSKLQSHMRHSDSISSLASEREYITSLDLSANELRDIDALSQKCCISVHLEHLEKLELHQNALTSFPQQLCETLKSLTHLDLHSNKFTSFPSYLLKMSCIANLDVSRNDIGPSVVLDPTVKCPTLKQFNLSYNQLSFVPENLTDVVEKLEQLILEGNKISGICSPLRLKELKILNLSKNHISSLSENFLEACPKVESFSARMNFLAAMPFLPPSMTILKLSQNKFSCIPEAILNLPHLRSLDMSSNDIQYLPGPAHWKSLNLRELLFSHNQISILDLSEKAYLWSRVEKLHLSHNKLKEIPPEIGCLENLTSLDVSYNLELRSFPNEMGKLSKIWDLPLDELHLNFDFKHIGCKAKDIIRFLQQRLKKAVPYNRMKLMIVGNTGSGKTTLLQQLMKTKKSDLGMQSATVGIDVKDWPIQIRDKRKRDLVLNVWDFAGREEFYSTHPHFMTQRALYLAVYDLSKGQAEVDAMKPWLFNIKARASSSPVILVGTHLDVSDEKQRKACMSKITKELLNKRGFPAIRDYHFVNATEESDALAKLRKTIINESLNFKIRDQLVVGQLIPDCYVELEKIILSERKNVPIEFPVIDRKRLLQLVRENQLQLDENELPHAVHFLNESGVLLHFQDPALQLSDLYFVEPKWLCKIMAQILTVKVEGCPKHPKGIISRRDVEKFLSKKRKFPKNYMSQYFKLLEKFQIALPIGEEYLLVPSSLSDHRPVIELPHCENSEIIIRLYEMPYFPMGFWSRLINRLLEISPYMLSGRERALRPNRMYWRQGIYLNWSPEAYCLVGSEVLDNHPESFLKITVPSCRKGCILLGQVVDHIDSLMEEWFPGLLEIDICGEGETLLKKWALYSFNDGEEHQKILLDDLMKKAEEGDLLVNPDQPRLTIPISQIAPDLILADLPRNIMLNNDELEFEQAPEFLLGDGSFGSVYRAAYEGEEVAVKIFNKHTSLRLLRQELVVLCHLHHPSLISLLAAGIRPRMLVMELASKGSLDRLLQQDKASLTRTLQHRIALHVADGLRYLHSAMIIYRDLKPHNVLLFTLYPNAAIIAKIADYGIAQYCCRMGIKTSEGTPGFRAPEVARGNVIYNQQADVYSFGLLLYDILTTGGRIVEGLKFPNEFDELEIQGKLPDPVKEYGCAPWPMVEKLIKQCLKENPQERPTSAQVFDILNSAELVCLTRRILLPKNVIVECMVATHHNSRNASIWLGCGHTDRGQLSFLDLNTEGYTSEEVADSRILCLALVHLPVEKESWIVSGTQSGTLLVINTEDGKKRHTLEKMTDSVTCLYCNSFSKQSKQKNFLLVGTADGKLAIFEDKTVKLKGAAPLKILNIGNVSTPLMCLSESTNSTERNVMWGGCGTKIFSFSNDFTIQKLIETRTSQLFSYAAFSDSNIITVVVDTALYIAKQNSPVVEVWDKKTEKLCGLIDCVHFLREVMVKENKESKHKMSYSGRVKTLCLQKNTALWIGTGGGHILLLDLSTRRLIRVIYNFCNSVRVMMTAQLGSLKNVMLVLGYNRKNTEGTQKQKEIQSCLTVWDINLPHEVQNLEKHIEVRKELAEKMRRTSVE
Chain of Recombinant G2019S-LRRK2 protein (Q5S007 whole entry G2019S): as the sequence (Q5S007 whole entry) above, with G2019S counted along it

Compound | IC50 [1] [µM] | IC50 [2] [µM]
Cc1cc(C#N)cnc1C(=O)Nc1ccc2[nH]nc(C3COC3)c2c1 [Example 256, 5-Cyano-3-methyl-N-(3-(oxetan-3-yl)-1H-indazol-5-yl)picolinamide] | 1 to 10 | 1 to 10
Cc1c(C#N)cnc(C(=O)Nc2ccc3[nH]nc(C4CC4(C)C)c3c2)c1C (centres unmarked) [Example 257, 5-Cyano-N-(3-(2,2-dimethylcyclopropyl)-1H-indazol-5-yl)-3,4-dimethylpicolinamide] | 1 to 10 | 1 to 10
COc1cc(C(=O)Nc2ccc3[nH]nc(-c4cnco4)c3c2)nc(C)c1C#N [Example 258, 5-Cyano-4-methoxy-6-methyl-N-(3-(oxazol-5-yl)-1H-indazol-5-yl)picolinamide] | 1 to 10 | < 0.1
Cc1c(C#N)cnc(C(=O)Nc2ccc3[nH]nc(C=C4CCN(C(=O)OC(C)(C)C)CC4)c3c2)c1C [Example 259, tert-butyl 4-((5-(5-Cyano-3,4-dimethylpicolinamido)-1H-indazol-3-yl)methylene)piperidine-1-carboxylate] | > 10 | > 10
Cc1c(C#N)cnc(C(=O)Nc2ccc3[nH]nc(C=C4CCNCC4)c3c2)c1C [Example 260, 5-Cyano-3,4-dimethyl-N-(3-(piperidin-4-ylidenemethyl)-1H-indazol-5-yl)picolinamide] | > 10 | 1 to 10
Cc1c(C#N)cnc(C(=O)Nc2ccc3[nH]nc(/C=C4/CCOC4)c3c2)c1C [Example 261, (Z)-5-Cyano-N-(3-((dihydrofuran-3(2H)-ylidene)methyl)-1H-indazol-5-yl)-3,4-dimethylpicolinamide] | 1 to 10 | < 0.1
Cc1c(C#N)cnc(C(=O)Nc2ccc3[nH]nc(C=C4CCOCC4)c3c2)c1C [Example 262, 5-Cyano-3,4-dimethyl-N-(3-((tetrahydro-4H-pyran-4-ylidene)methyl)-1H-indazol-5-yl)picolinamide] | 1 to 10 | 1 to 10
Cc1c(C#N)cnc(C(=O)Nc2ccc3[nH]nc(C=C4COC4)c3c2)c1C [Example 263, 5-Cyano-3,4-dimethyl-N-(3-(oxetan-3-ylidenemethyl)-1H-indazol-5-yl)picolinamide] | 1 to 10 | 0.1 to 1
COCc1n[nH]c2ccc(NC(=O)c3ncc(C#N)c(C)c3C)cc12 [Example 264, 5-Cyano-N-(3-(methoxymethyl)-1H-indazol-5-yl)-3,4-dimethylpicolinamide] | 1 to 10 | 0.1 to 1
Cc1c(C#N)cnc(C(=O)Nc2ccc3[nH]nc(C4CC4C(F)(F)F)c3c2)c1C (centres unmarked) [Example 265, 5-Cyano-3,4-dimethyl-N-(3-(2-(trifluoromethyl)cyclopropyl)-1H-indazol-5-yl)picolinamide] | 1 to 10 | 0.1 to 1
Cc1c(C#N)cnc(C(=O)Nc2ccc3[nH]nc(/C=C/C(F)(F)F)c3c2)c1C [Example 266, (E)-5-Cyano-3,4-dimethyl-N-(3-(3,3,3-trifluoroprop-1-en-1-yl)-1H-indazol-5-yl)picolinamide] | 0.1 to 1 | < 0.1
C=C(C)c1n[nH]c2ccc(NC(=O)c3ncc(C#N)c(C)c3C)cc12 [Example 267, 5-Cyano-3,4-dimethyl-N-(3-(prop-1-en-2-yl)-1H-indazol-5-yl)picolinamide] | 0.1 to 1 | < 0.1
Cc1c(C#N)cnc(C(=O)Nc2ccc3[nH]nc(C4(C)CC4)c3c2)c1C [Example 268, 5-Cyano-3,4-dimethyl-N-(3-(1-methylcyclopropyl)-1H-indazol-5-yl)picolinamide] | 1 to 10 | 0.1 to 1
COC(C)c1n[nH]c2ccc(NC(=O)c3ncc(C#N)c(C)c3C)cc12 (centres unmarked) [Example 269, 5-Cyano-N-(3-(1-methoxyethyl)-1H-indazol-5-yl)-3,4-dimethylpicolinamide] | > 10 | 1 to 10
Cc1c(C(=O)Nc2ccc3[nH]nc(C(C)C)c3c2)nc(Cl)c(C#N)c1C [Example 270, 6-Chloro-5-cyano-N-(3-isopropyl-1H-indazol-5-yl)-3,4-dimethylpicolinamide] | < 0.1 | < 0.1
CCc1n[nH]c2ccc(NC(=O)c3nc(Cl)c(C#N)c(C)c3C)cc12 [Example 271, 6-Chloro-5-cyano-N-(3-ethyl-1H-indazol-5-yl)-3,4-dimethylpicolinamide] | < 0.1 | < 0.1
Cc1cc(C#N)cnc1C(=O)Nc1ccc2[nH]nc(-c3ccnnc3)c2c1 [Example 272, 5-Cyano-3-methyl-N-(3-(pyridazin-4-yl)-1H-indazol-5-yl)picolinamide] | 0.1 to 1 | < 0.1
Cc1cc(-c2n[nH]c3ccc(NC(=O)c4ncc(C#N)cc4C)cc23)cnn1 [Example 273, 5-Cyano-3-methyl-N-(3-(6-methylpyridazin-4-yl)-1H-indazol-5-yl)picolinamide] | 0.1 to 1 | < 0.1
C=C(C)c1c(C#N)cccc1C(=O)Nc1ccc2[nH]nc(C)c2c1 [Example 274, 3-Cyano-N-(3-methyl-1H-indazol-5-yl)-2-(prop-1-en-2-yl)benzamide] | 1 to 10 | < 0.1

Compound | IC50 [1] [µM] | IC50 [2] [µM]
Cc1nc(C(=O)Nc2ccc3[nH]nc(C)c3c2)c(Cl)c(C)c1C#N [Example 275, 3-Chloro-5-cyano-4,6-dimethyl-N-(3-methyl-1H-indazol-5-yl)picolinamide] | 0.1 to 1 | < 0.1
Cc1c(C#N)cnc(C(=O)Nc2ccc3[nH]nc(C=C4CCC4)c3c2)c1C [Example 276, 5-Cyano-N-(3-(cyclobutylidenemethyl)-1H-indazol-5-yl)-3,4-dimethylpicolinamide] | 0.1 to 1 | < 0.1
Cc1c(C#N)cnc(C(=O)Nc2ccc3[nH]nc(-c4ccnc(N5CCOCC5)c4)c3c2)c1C [Example 277, 5-Cyano-3,4-dimethyl-N-(3-(2-morpholinopyridin-4-yl)-1H-indazol-5-yl)picolinamide] | < 0.1 | < 0.1
Cc1c(C(=O)Nc2ccc3[nH]nc(-c4ccnc(N5CCOCC5)c4)c3c2)nc(Cl)c(C#N)c1C [Example 278, 6-Chloro-5-cyano-3,4-dimethyl-N-(3-(2-morpholinopyridin-4-yl)-1H-indazol-5-yl)picolinamide] | < 0.1 | < 0.1
CCc1cc(-c2n[nH]c3ccc(NC(=O)c4ncc(C#N)c(C)c4C)cc23)ccn1 [Example 279, 5-Cyano-N-(3-(2-ethylpyridin-4-yl)-1H-indazol-5-yl)-3,4-dimethylpicolinamide] | < 0.1 | < 0.1
Cc1c(C#N)cnc(C(=O)Nc2ccc3[nH]nc(-c4cccn(C)c4=O)c3c2)c1C [Example 280, 5-Cyano-3,4-dimethyl-N-(3-(1-methyl-2-oxo-1,2-dihydropyridin-3-yl)-1H-indazol-5-yl)picolinamide] | 1 to 10 | 1 to 10
Cc1c(C#N)cnc(C(=O)Nc2ccc3[nH]nc(/C=C/c4ccncc4)c3c2)c1C [Example 281, (E)-5-Cyano-3,4-dimethyl-N-(3-(2-(pyridin-4-yl)vinyl)-1H-indazol-5-yl)picolinamide] | < 0.1 | < 0.1
C/C=C/c1n[nH]c2ccc(NC(=O)c3nc(Cl)c(C#N)c(C)c3C)cc12 [Example 282, (E)-6-chloro-5-cyano-3,4-dimethyl-N-(3-(prop-1-en-1-yl)-1H-indazol-5-yl)picolinamide] | < 0.1 | < 0.1
Cc1nc(C(=O)Nc2ccc3[nH]nc(C4CC4)c3c2)c(Cl)c(C)c1C#N [Example 283, 3-chloro-5-cyano-N-(3-cyclopropyl-1H-indazol-5-yl)-4,6-dimethylpicolinamide] | 0.1 to 1 | < 0.1
CCc1n[nH]c2ccc(NC(=O)c3ncc(C#N)c(C(F)(F)F)c3C)cc12 [Example 284, 5-Cyano-N-(3-ethyl-1H-indazol-5-yl)-3-methyl-4-(trifluoromethyl)picolinamide] | 1 to 10 | < 0.1
COc1n[nH]c2ccc(NC(=O)c3ncc(C#N)c(C(F)(F)F)c3C)cc12 [Example 285, 5-Cyano-N-(3-methoxy-1H-indazol-5-yl)-3-methyl-4-(trifluoromethyl)picolinamide] | 1 to 10 | < 0.1
Cc1c(C(=O)Nc2ccc3[nH]nc(C4CC4)c3c2)ncc(C#N)c1C(F)(F)F [Example 286, 5-Cyano-N-(3-cyclopropyl-1H-indazol-5-yl)-3-methyl-4-(trifluoromethyl)picolinamide] | 1 to 10 | < 0.1
COc1n[nH]c2ccc(NC(=O)c3nc(C)c(C#N)c(C)c3C)cc12 [Example 287, 5-Cyano-N-(3-methoxy-1H-indazol-5-yl)-3,4,6-trimethylpicolinamide] | 0.1 to 1 | < 0.1
Cc1cc(C#N)c(C(F)(F)F)nc1C(=O)Nc1ccc2[nH]nc(-c3cnco3)c2c1 [Example 288, 5-Cyano-3-methyl-N-(3-(oxazol-5-yl)-1H-indazol-5-yl)-6-(trifluoromethyl)picolinamide] | < 0.1 | < 0.1
Cc1c(C(=O)Nc2ccc3[nH]nc(-c4cnco4)c3c2)ncc(C#N)c1C(F)(F)F [Example 289, 5-Cyano-3-methyl-N-(3-(oxazol-5-yl)-1H-indazol-5-yl)-4-(trifluoromethyl)picolinamide] | < 0.1 | < 0.1
Cc1c(C(=O)Nc2ccc3[nH]nc(C#N)c3c2)nc(Cl)c(C#N)c1C [Example 290, 6-Chloro-5-cyano-N-(3-cyano-1H-indazol-5-yl)-3,4-dimethylpicolinamide] | < 0.1 | < 0.1
Cc1c(C(=O)Nc2ccc3[nH]nc(C(F)F)c3c2)nc(Cl)c(C#N)c1C [Example 291, 6-Chloro-5-cyano-N-(3-(difluoromethyl)-1H-indazol-5-yl)-3,4-dimethylpicolinamide] | < 0.1 | < 0.1
Cc1c(C#N)cnc(C(=O)Nc2ccc3[nH]nc(C(F)F)c3c2)c1C [Example 292, 5-Cyano-N-(3-(difluoromethyl)-1H-indazol-5-yl)-3,4-dimethylpicolinamide] | 1 to 10 | 0.1 to 1
